Blank lines part the entries; values can stand above or below the molecule they belong to.
Assays:
[1] = Effect of oxygen (high oxygen content air or N2); type: physicochemical; details: high oxygen content air or inert atmosphere (N2)
Source text: Oxidative degradation of leflutrozole is the primary pathway by which leflutrozole degrades outside of the synthesis process. Defluorination and oxidation that coincides with removal of the […] moiety yields the compound of Formula IV.

[2] = Long term storage stability of crystalline Form A leflutrozole; type: physicochemical
Procedure: The test for determination of the amount of related substance impurities uses reverse phase HPLC analysis with UV detection (230 nm). The solvents are acetonitrile/water/diammonium hydrogen phosphate buffer/O-phosphirc acid 85%. The column is Macherey Nagel, Nucleosil 100 C18HD (length=150 mm, internal diameter 3.0 mm) or equivalent L1 USP HPLC Columns.
Stability data under accelerated conditions are for up to 6 months at 40° C./75% RH and up to 3 months at 50° C. […].
Packaging A: Double low density polyethylene bags in fiber drugms; water permeation <14.0 mg/day/L. Packaging D: Brown glass bottles type C sealed in triple laminated foil bags or quadruple laminated foil bags of type B; water permeation <0.5 mg/day/L. Packaging H: Double polythene bags, sealed, in 400 mL mini-metallic drugs; water permeation 5 mg/day/L. Packaging J: HDPE bottles from Nalgene (30 mL) with polypropylene screw caps and sealed in alubags of type B. Packaging K: Polyethylene bag containing the drug inside quadruple laminated foil bags; water permeation <0.5 mg/day/L.

[3] = Dynamic vapor sorption (DVS); type: physicochemical
Procedure: Crystalline Form A leflutrozole was determined to be non-hygroscopic.

[4] = Stability program: degradation product formation and appearance; type: physicochemical; details: for DSC onset after stress / DSC ΔH after stress: Bulk (DSC)
Source text: The mixtures of excipients used for this study are as follows: mixture 1 (maltodextrin, microcrystalline cellulose, sodium carboxymethylcellulose, Aerosil 200, Cutina HR; 64:29:5:0.5:1.5 ratio), mixture 2 (microcrystalline cellulose, spray dried lactose, sodium carboxylmethyl starch, Aerosil 200, magnesium stearate; 20:73.5:5:0.5:1 ratio), and mixture 3 (microcrystalline cellulose, mannitol, crospovidone, magnesium stearate; 15:79.5:4:1.5 ratio). The buffered solutions are aqueous.

[5] = Chemical stability stress test: bulk solid and suspensions in buffer; type: physicochemical; details: for Leflutrozole Peak Area, After: 1 week; for degradation: all suspensions tested
Procedure: The stress test conditions were bulk crystalline solid at room temperature (RT, about 25° C.) and 80° C. for one week or storage in buffer solutions of different pH (1, 4, and 7.4) at RT or at 80° C. for one week. Additional experiments were performed at 50° C. if degradation by more than 5% was observed during the analogous 80° C. experiment.

CYP2D6 = biological target: T1, CYP2D6 (Homo sapiens, UniProt P10635); assay: CYP inhibition, pooled human liver microsomes, probe substrates; type: in vitro ADME; details: up to 100 μM
T1 construct: assessed by pooled human liver microsomes using enzyme selective probe substrates; from tissue; host or cells: pooled human liver microsomes

CYP2A6 = biological target: T2, CYP2A6 (Homo sapiens, UniProt P11509); assay: as above; type: in vitro ADME
T2 construct: assessed by pooled human liver microsomes using enzyme selective probe substrates; from tissue; host or cells: pooled human liver microsomes
T2 sequence (P11509 1-494): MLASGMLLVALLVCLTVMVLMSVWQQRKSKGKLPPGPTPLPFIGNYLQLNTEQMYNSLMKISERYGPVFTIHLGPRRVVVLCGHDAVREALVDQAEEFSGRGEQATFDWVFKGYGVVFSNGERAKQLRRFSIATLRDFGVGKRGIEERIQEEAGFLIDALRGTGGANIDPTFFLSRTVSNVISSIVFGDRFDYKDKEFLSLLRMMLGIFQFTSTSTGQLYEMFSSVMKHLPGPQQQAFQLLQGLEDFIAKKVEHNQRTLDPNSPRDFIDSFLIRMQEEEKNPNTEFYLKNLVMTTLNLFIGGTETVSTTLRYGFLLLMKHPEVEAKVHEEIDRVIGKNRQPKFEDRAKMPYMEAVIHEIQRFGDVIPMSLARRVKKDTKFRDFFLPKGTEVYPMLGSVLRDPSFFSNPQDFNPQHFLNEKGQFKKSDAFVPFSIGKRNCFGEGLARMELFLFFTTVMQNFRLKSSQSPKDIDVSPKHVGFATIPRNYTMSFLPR

CYP2C19 = biological target: T3, CYP2C19 (Homo sapiens, UniProt P33261); assay: as above; type: in vitro ADME; details: up to 100 μM
T3 construct: assessed by pooled human liver microsomes using enzyme selective probe substrates; from tissue; host or cells: pooled human liver microsomes

[6] = Pharmacokinetics in naïve female mice; details: mouse, in vivo, NMP-PEG300 10/90
[7] = Dissolution experiments with capsules; type: physicochemical; details: drug substance particle sizes up to D90 ≤35 μm
[8] = 36 months, 25° C., double polyethylene liner and black polyethylene keg
[9] = more than 36 months at room temperature
[10] = 2% (or 5%) solution or suspension, 1 day, room temperature, HPMC Cellulose 4000 0.5%
[11] = Solid-state, 1 week, 50° C., 75% RH, 1% in mixture 1
[12] = Solid-state, 1 week, 50° C., 75% RH, 1% in mixture 2
[13] = Solid-state, 1 week, 50° C., 75% RH, 1% in mixture 3
[14] = Solid-state, 1 week, 50° C., tight container, 1% in mixture 1
[15] = Solid-state, 1 week, 50° C., tight container, 1% in mixture 2
[16] = Solid-state, 1 week, 50° C., tight container, 1% in mixture 3
[17] = Solid-state, 1 week, 80° C., 75% RH
[18] = Solid-state, 1 week, 80° C., 75% RH, Bulk (HPLC)
[19] = Solid-state, 1 week, 80° C., tight container
[20] = Solid-state, 1 week, 80° C., tight container, Bulk (HPLC)
[21] = Xenon light (approx. 1200 kLuxh)
[22] = Xenon light (approx. 1200 kLuxh), Bulk (HPLC)

T1 sequence (P10635 whole entry): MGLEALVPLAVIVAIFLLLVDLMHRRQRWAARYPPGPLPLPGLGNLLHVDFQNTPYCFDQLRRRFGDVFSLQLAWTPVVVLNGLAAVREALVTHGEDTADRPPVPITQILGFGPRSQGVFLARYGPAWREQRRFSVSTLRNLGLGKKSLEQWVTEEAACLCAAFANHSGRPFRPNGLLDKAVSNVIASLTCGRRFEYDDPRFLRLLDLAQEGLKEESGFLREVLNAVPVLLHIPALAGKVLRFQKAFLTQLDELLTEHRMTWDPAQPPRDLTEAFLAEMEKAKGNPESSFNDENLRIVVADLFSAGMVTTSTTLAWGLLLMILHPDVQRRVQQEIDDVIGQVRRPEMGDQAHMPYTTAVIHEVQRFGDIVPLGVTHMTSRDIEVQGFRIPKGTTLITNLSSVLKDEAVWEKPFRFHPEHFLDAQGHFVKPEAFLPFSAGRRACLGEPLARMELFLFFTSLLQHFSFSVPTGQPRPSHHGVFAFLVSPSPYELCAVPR
T3 sequence (P33261 whole entry): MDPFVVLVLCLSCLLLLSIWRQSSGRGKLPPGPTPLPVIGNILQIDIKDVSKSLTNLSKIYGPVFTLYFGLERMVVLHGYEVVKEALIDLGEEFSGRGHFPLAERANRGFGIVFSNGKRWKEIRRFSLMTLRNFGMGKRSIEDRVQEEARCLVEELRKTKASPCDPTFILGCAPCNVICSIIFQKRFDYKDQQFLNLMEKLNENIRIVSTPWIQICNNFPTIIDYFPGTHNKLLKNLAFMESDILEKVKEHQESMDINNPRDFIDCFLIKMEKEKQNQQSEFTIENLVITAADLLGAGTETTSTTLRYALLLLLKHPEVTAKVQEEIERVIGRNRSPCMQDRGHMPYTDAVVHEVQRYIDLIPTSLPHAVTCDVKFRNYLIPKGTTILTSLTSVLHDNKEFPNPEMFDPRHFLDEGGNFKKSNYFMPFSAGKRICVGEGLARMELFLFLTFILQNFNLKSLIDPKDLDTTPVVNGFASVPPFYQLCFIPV

Combined related substance impurities ([2]; 5° C. ± 3° C. in packaging D, Initial): 0.60%
Combined related substance impurities ([2]; 25° C./60% RH in packaging K, 3 months): 0.60%
Combined related substance impurities ([2]; 25° C./60% RH in packaging K, Initial): 0.60%
impurity Q2 (substance of unknown structure) [2, 8]: 0.11 % w/w
impurity compound of formula (III) [2, 8]: 0.14 % w/w
Combined related substance impurities ([2]; 40° C./75% RH in packaging A, 3 months): 0.60%
Combined related substance impurities ([2]; 40° C./75% RH in packaging A, Initial): 0.60%
Combined related substance impurities ([2]; 40° C./75% RH in packaging D, Initial): 0.60%
Combined related substance impurities ([2]; 40° C./75% RH in packaging K, 6 months): 0.60%
Combined related substance impurities ([2]; 40° C./75% RH in packaging K, Initial): 0.60%
Combined related substance impurities ([2]; 50° C./≤30% RH in packaging D, Initial): 0.60%
Combined related substance impurities ([2]; 50° C./≤30% RH in packaging K, Initial): 0.60%
stability of drug substance on storage (in words) ([2]; long term and accelerated storage conditions): very stable under all storage conditions
individual impurity developed [2, 9]: ≤ 0.8 % HPLC peak area
total amount of impurities [2, 9]: ≤ 2.0 % of the total HPLC peak area
time stable at room temperature ([2]; room temperature): more than 36 months
Combined related substance impurities ([2]; −20° C. ± 5° C./ambient RH in packaging D, Initial): 0.60%
Combined related substance impurities ([2]; −20° C. ± 5° C./ambient RH in packaging K, Initial): 0.60%
hygroscopicity [3]: non-hygroscopic
maximum water uptake (DVS) ([3]; 25° C., up to 95% relative humidity): < 0.2%
CL (appearance, color) ([4]; 0.1% solution or suspension, 1 week, 80° C., Ethanol): No change
CL (appearance, color) ([4]; 0.1% solution or suspension, 1 week, 80° C., Methanol): No change
CL (appearance, color) ([4]; 0.1% solution or suspension, 1 week, 80° C., Water): No change, suspension formed
CL (appearance, color) ([4]; 0.1% solution or suspension, 1 week, 80° C., pH 1): No change, suspension formed
CL (appearance, color) ([4]; 0.1% solution or suspension, 1 week, 80° C., pH 3): No change, suspension formed
form change on storage ([4]; 1 week at 80° C. and 75% relative humidity): no detectable form change
CL (appearance, color) ([4]; 2% (or 5%) solution or suspension, 1 day, room temperature, 0.5% CMC): suspension formed
CL (appearance, color) [4, 10]: suspension formed
DP (degradation product) [4, 10]: 0.0%
CL (appearance, color) [4, 11]: No change
DP (degradation product) [4, 11]: 0.5%
CL (appearance, color) [4, 12]: No change
DP (degradation product) [4, 12]: 0.1%
CL (appearance, color) [4, 13]: No change
DP (degradation product) [4, 13]: 0.4%
CL (appearance, color) [4, 14]: No change
DP (degradation product) [4, 14]: 0.0%
CL (appearance, color) [4, 15]: No change
DP (degradation product) [4, 15]: 0.0%
CL (appearance, color) [4, 16]: No change
DP (degradation product) [4, 16]: 0.1%
DSC onset after stress [4, 17]: 168 °C onset;
DSC ΔH after stress [4, 17]: ΔH = 110.3 J/g
CL (appearance, color) [4, 18]: No change
DP (degradation product) [4, 18]: 0.0%
DSC onset after stress [4, 19]: 168 °C onset;
DSC ΔH after stress [4, 19]: ΔH = 114 J/g
CL (appearance, color) [4, 20]: No change
DP (degradation product) [4, 20]: 0.0%
DSC onset after stress [4, 21]: 169 °C onset;
DSC ΔH after stress [4, 21]: ΔH = 112.6 J/g
CL (appearance, color) [4, 22]: No change
DP (degradation product) [4, 22]: 0.0%
degradation on exposure to xenon lamp (in words) ([4]; xenon lamp): does not degrade
Leflutrozole Peak Area, After ([5]; Bulk Solid, RT): 99.6% peak area
Leflutrozole Peak Area, After ([5]; Bulk solid, 80° C., listed as Form A of leflutrozole): 99.7 % peak area
Leflutrozole Peak Area, After ([5]; Bulk solid, 80° C., listed as crystalline Form A leflutrozole): 99.7% peak area
Leflutrozole Peak Area, After ([5]; Suspension in buffer, pH 1, 50° C.): 79.8% peak area
Leflutrozole Peak Area, After ([5]; Suspension in buffer, pH 1, 80° C.): 18.5% peak area
Leflutrozole Peak Area, After ([5]; Suspension in buffer, pH 4, 50° C.): 94.3% peak area
Leflutrozole Peak Area, After ([5]; Suspension in buffer, pH 4, 80° C.): 0.6% peak area
Leflutrozole Peak Area, After ([5]; Suspension in buffer, pH 7.4, 50° C.): 95.5% peak area
Leflutrozole Peak Area, After ([5]; Suspension in buffer, pH 7.4, 80° C.): 1.1% peak area
degradation ([5]; 1 week at 50° C.): > 4%
degradation ([5]; 80° C. for 1 week, irrespective of buffer pH): > 80%
Leflutrozole Peak Area, Before ([5]; before stress test): 99.7% peak area
major decomposition product ([5]; sample stored at pH 7.4 and 80° C., LC-MS): compound of Formula (IV)
SMILES: N#Cc1ccc(C(F)(c2ccc(C#N)cc2)n2cncn2)cc1 [Form A leflutrozole, 4-[(4-cyanophenyl)-fluoro-(1,2,4-triazol-1-yl)methyl]benzonitrile]
degradation on exposure to air (in words) [1]: does not degrade readily when exposed to air

IC50 (CYP2D6): > 50 µM
Ki (CYP2A6): 2.56 µM
impurities formed ([4]; mixtures of 1% leflutrozole with various excipients, 1 week, 50° C. and 75% relative humidity): at most 0.5%
IC50 (CYP2C19): > 50 µM
AUC(0-inf) ([6]; iv, 1 mg/kg i.v.): 34 µM·h
AUC(0-t) ([6]; iv, 1 mg/kg i.v.): 21 µM·h
clearance ([6]; iv, 1 mg/kg i.v.): 1.5 mL/min
half-life ([6]; iv, 1 mg/kg i.v.): 13 h
AUC(0-inf) ([6]; po, 2.5 mg/kg p.o.): 70.2 µM·h
AUC(0-t) ([6]; po, 2.5 mg/kg p.o.): 61.7 µM·h
Cmax ([6]; po, 2.5 mg/kg p.o.): 2930 nM
half-life ([6]; po, 2.5 mg/kg p.o.): 13 h
influence of particle size on dissolution of capsules [7]: no relevant influence on dissolution
SMILES: N#Cc1ccc(C(F)(c2ccc(C#N)cc2)n2cncn2)cc1 [leflutrozole, 4-[(4-cyanophenyl)-fluoro-(1,2,4-triazol-1-yl)methyl]benzonitrile]
